Assay results: patent US9908886B2 (Agency for Science, Technology and Research, priority 2012, dated 2018)

How the values were obtained:
[1] = tested on: eIF4E Ser209 phosphorylation in Hela cells; experiment: MNK cell-based assay, AlphaScreen SureFire; settings: 2 hours
From the text: It has been reported that Ser209 of eIF4E is solely phosphorylated by the MNK enzymes. The ability of compounds to inhibit this process in Hela cells was investigated using the AlphaScreen SureFire® assay platform from Perkin Elmer (Waltham, Mass.). eIF4E phosphorylated on Ser209 is recognized by two antibodies, the first which is fused to a streptavidin coated donor bead binds to an epitope away from Ser209, the second which is fused to a protein A conjugated acceptor bead binds to phosphorylated Ser209. The phosphorylation of eIF4E on Ser209 brings the two antibodies into close proximity and when excited by a laser a singlet oxygen is released by the donor bead which excites the acceptor bead resulting in the emission of light. This enables the monitoring of eIF4E Ser209 phosphorylation and its inhibition in a cellular context.
Hela cells were seeded into microtitre plates (30,000 cells per well) in 100 μl of culture medium and incubated at 37° C. for 24 hours. The media was then removed by aspiration and the cells resuspended in 50 μl of serum free medium containing the test compound and incubated at 37° C. for 2 hours. The culture medium was again removed by aspiration and the cells resuspended in lysis buffer (provided in Perkin Elmer SureFire® Assay Kit). After agitation at 350 rpm for 20 minutes at 22° C., 4 μl was transferred to a 384 well OptiPlate™ (Perkin Elmer, Waltham, Mass.). To each well was added 5 μl of acceptor mix; the plate was sealed and agitated gently at 22° C. for 2 hours. Then, in subdued light, 2 μl of donor mix was added to each well, the plate was sealed, wrapped in aluminum foil and agitated gently at 22° C. for 2 hours. Emission was measured using the EnVision® plate reader (Perkin Elmer, Waltham, Mass.).
Inhibition constants (IC50) were determined by plotting AlphaScreen signal versus log compound concentration and fitting with a non-linear regression algorithm using GraphPad Prism (GraphPad Software Inc.).

MNK1 = MNK1 (Homo sapiens, UniProt Q9BUB5); experiment: In vitro MNK kinase assay (Caliper LabChip mobility shift); type: biochemical; settings: enzymatic, 1.2 mM ATP; read-out: IC50 Mnk1
MNK2 = MNK2 (Homo sapiens (Human), UniProt Q9HBH9); experiment: as above; type: biochemical; settings: enzymatic, 250 μM ATP; read-out: IC50 Mnk2
[2] = tested on: CD34+ BC-CML primary cells; settings: background section; including cells carrying T315I mutation; cited from earlier work
[3] = tested on: eIF4E phosphorylation in BC GMPs; settings: background section; cited from earlier work
[4] = tested on: eIF4E phosphorylation in K562 cells; experiment: Western blot of eIF4E phosphorylation in BC-CML cell line; type: cell-based; settings: various concentrations, 24 h
Method: K562 cell line was obtained from the ATCC, and grown in RPMI supplemented with 10% FCS, L-glutamine, and penicillin/streptomycin.
Exponentially growing cells were plated at 2×10^5 cells/ml, and whole cell lysate processed for western blot analysis using antibodies recognizing eIF4E, phospho-eIF4E (Cell signaling Technology),

D1.1 cells = experiment: Cell cytotoxicity assay (CellTiter-Glo); type: cell-based; settings: 48 hours extended to 6 days
Method: (§1) Cancer cell lines, MV-4-11 (leukemia), P116.c139 (acute T cell leukemia) and D1.1 (acute T cell leukemia), were purchased from ATCC and cultured according to supplier's recommendations. K562 cells (myelogenous leukemia) over-expressing eIF4E, were also used for the cytotoxicity assay. For cells treated for 48 hours, 5000 cells were seeded in 70 μl of growth medium in black, flat-bottom 96-well plate. For cells treated for six days, 1000 cells were seeded in 70 μl of growth medium in black, flat-bottom 96-well plate. […] 50 μl of the diluted compounds was added to the cells and incubated at 37° C. in 5% CO2. After 48 hours or six days treatment, cell viability was determined by CellTiter-Glo Luminescent Cell Viability Assay (Promega, Madison, Wis.). 120 μl of the reagent was added to the cells and luminescence was measured using Tecan Safire Reader. Data was analysed with Graphpad Prism software and the figures represented indicate the half maximal inhibitory concentration (IC50). Error bars denote standard deviation (SD).

[5] = tested on: K562 cells over-expressing eIF4E; experiment: Cell cytotoxicity assay (CellTiter-Glo); type: cell-based; settings: 48 hours extended to 6 days
Method: as §1

P116.c139 cells = experiment: Cell cytotoxicity assay (CellTiter-Glo); type: cell-based; settings: 48 hours extended to 6 days
Method: as §1

[6] = tested on: CD34+ BC-CML primary cells; experiment: Serial replating assay; type: cell-based, human; settings: for serial replating efficiency of CD34+ BC cells: increasing dose, 48 hr treatment, compared to DMSO
From the text: Cord Blood (CB) samples were purchased from the Singapore Cord Blood bank. CML samples were the Singapore General Hospital after signed informed consent under local IRB-approved procedures. MNCs were obtained using Ficoll separation, and CD34^+ cells selected by immunomagnetic beads (Miltenyi Biotech, Germany).
CD34-enriched CB and BC cells were thawed and allowed to recover overnight in serum-free StemPro media (Invitrogen, Carlsbad, Calif.), supplemented with human growth factors and 1× nutrient supplement (Invitrogen). Cells were then subjected to drug treatment for 48 hr, harvested, washed, and seeded in methycellulose (H4434, […] Technologies, Canada). Colonies were enumerated after 2 weeks, individually picked, and replated in fresh methylcellulose in a 96-well format, and counted at 2 weeks. Three rounds of serial replating (representing>8 weeks in culture) were performed.

Chain of MNK2 (Q9HBH9 84-388): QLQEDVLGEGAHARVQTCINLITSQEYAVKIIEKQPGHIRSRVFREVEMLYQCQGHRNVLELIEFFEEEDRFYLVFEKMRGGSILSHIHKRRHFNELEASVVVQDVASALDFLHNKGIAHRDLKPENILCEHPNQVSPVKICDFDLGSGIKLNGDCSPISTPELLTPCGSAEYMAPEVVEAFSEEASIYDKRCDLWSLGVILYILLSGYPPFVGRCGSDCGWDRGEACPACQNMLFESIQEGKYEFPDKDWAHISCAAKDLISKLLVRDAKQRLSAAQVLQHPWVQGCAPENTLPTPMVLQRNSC

Compound	IC50 (MNK1) [nM]	IC50 (MNK2) [nM]	also measured
N-(5-(3-(4-cyanophenyl)imidazo[1,2-b]pyridazin-6-yl)-2-morpholine-4-carbonyl)phenyl)acetamide [Example 80]	–	–	IC50 [1]: < 1000 nM
CN1CCN(C(=O)c2ccc(-c3ccc4ncc(-c5ccc(C#N)cc5)n4c3)cc2O)CC1 [Example 143, 4-(6-(3-hydroxy-4-(4-methylpiperazine-1-carbonyl)phenyl)imidazo[1,2-a]pyridin-3-yl)benzonitrile]	< 100	< 100	IC50 ([1]; Homo sapiens): < 1000 nM
CN1CCN(C(=O)c2ccc(-c3ccc4ncc(-c5ccc(C#N)cc5)n4c3)c(O)c2)CC1 [Example 144, 4-(6-(2-hydroxy-4-(4-methylpiperazine-1-carbonyl)phenyl)imidazo[1,2-a]pyridin-3-yl)benzonitrile]	< 100	< 100	IC50 ([1]; Homo sapiens): < 1000 nM
Cc1ccc(NC(=O)c2ccc(CN3CCN(C)CC3)cc2)cc1Nc1nccc(-c2cccnc2)n1 [imatinib]	–	–	ability of CD34+ BC cells to serially replate for more than 8 weeks in methylcellulose [2]: only partially impaired; eIF4E phosphorylation in BC GMPs [3]: not
N#Cc1ccc(-c2cnc3ccc(-c4ccc(C(=O)N5CCN(c6ccncc6)CC5)cc4)cn23)cc1 [Example 125, 4-(6-(4-(4-(pyridin-4-1)piperazine-1-carbonyl)phenyl)imidazo[1,2-a]pyridin-3-yl)benzonitrile]	–	–	IC50 [1]: < 1000 nM
CN1CCN(C(=O)c2ccc(-c3cn4c(-c5ccc(C#N)cc5)cnc4cn3)cc2)CC1 [Example 6, 4-(6-(4-(4-methylpinerazine-1-carbonyl)phenyl)imidazo[1,2-a]pyrazin-3-yl)benzonitrile]	–	–	eIF4E phosphorylation [4]: prevent eIF4E phosphorylation
N-(1-(4-(3-(4-chlorophenyl)imidazo[1,2-a]pyrazin-6-yl)benzoyl)piperidin-4-yl)-2,2,2-acetamide [Example 49]	–	–	IC50 [1]: < 1000 nM
CN1CCN(C(=O)c2ccc(-c3ccc4ncc(-c5ccc(C#N)cc5)n4n3)cc2)CC1 [Example 54]	–	–	IC50 ([1]; Homo sapiens): < 1000 nM
CN1CCN(C2CCN(C(=O)c3ccc(-c4ccc5ncc(-c6ccc(C#N)cc6)n5c4)cc3)CC2)CC1 [Example 133, 4-(6-(4-(4(4-methylpiperazin-1-yl)piperidine-1-carbonyl)phenyl)imidazo[1,2-a]pyridin-3-yl)benzonitrile]	< 100	< 100	change of IC50 with treatment duration, D1.1 cells (D1.1 cells): not influenced by the treatment duration; change of IC50 with treatment duration, K562 cells over-expressing eIF4E [5]: not influenced by the treatment duration; change of IC50 with treatment duration, P116.c139 cells (P116.c139 cells): decrease the IC50 by more than half-fold
O=C(c1ccc(-c2cn3c(-c4ccc(O)cc4)cnc3cn2)cc1)N1CCOCC1 [Example 2, (4-(3-(4-hydroxyphenyl)imidazo[1,2-a]pyrazin-6-yl)phenyl)(morpholino)methanone]	< 1000	< 1000	eIF4E phosphorylation [4]: prevent eIF4E phosphorylation; ability of BC cells to serial replate ([6]; at 10.0 μM and 20.0): potently impaired the ability of BC cells to serial replate; serial replating efficiency of CD34+ BC cells [6]: retards serial replating efficiency
N#Cc1ccc(-c2cnc3ccc(-c4ccc(C(=O)N5CCC(O)CC5)cc4)nn23)cc1 [Example 55, 4-(6-(4-(4-hydroxypiperidine-1-carbonyl)phenyl)imidazo[1,2-b]pyridazin-3-yl)benzonitrile]	< 100	< 100	–
CN1CCN(C(=O)c2ccc(-c3cn4c(-c5ccc(Cl)cc5)cnc4cn3)cc2)CC1 [Example 41, (4-(3-(4-chlorophenyl)imidazo[1,2-a]pyrazin-6-yl)phenyl)(4-methylpiperazin-1-yl)methanone]	< 1000	< 1000	–
N#Cc1ccc(-c2cnc3ccc(-c4ccc(C(=O)N5CCC(N)CC5)cc4)nn23)cc1 [Example 56, 4-(6-(4-(4-aminopiperidine-1-carbonyl)phenyl)imidazo[1,2-b]pyridazin-3-yl)benzonitrile]	< 100	< 100	–
CN1CCN(C(=O)c2ccc(-c3cn4c(-c5ccc(O)cc5)cnc4cn3)cc2)CC1 [Example 1, (4-(3-(4-hydroxyphenyl)imidazo[1,2-a]pyrazin-6-yl)phenyl)(4-methylpiperazin-1-yl)methanone]	< 100	< 100	eIF4E phosphorylation [4]: prevent eIF4E phosphorylation; serial replating efficiency of CD34+ BC cells [6]: retards the serial replating efficiency
CN1CCN(C(=O)c2ccc(-c3ccc4ncc(-c5ccc6[nH]ncc6c5)n4n3)cc2)CC1 [Example 86, (4-(3-(1H-indazol-5-yl)imidazo[1,2-b]pyridazin-6-yl)phenyl)(4-methylpiperazin-1-yl)methanone]	< 100	< 100	–
CC(=O)N1CCCCC12CCN(C(=O)c1ccc(-c3ccc4ncc(-c5ccc(C#N)cc5)n4c3)cc1)CC2 [Example 118, 4-(6-(4-(1-acetyl-1,9-diazaspiro[5.5]undecane-9-carbonyl)phenyl)imidazo[1,2-a]pyridin-3-yl)benzonitrile]	< 100	< 100	–
N#Cc1ccc(-c2cnc3ccc(-c4ccc(C(=O)N5CCN(C(=O)c6ccccc6)CC5)cc4)cn23)cc1 [Example 126, 4-(6-(4-(4-benzoylpiperazine-1-carbonyl)phenyl)imidazo[1,2-a]pyridin-3-yl)benzonitrile]	< 100	< 100	–
CN1CCN(C(=O)c2ccc(-c3ccc4ncc(-c5ccc(C#N)cc5)n4c3)cc2C(F)(F)F)CC1 [Example 145, 4-(6-(4-(4-methylpiperazine-1-carbonyl)-3-(trifluoromethyl)phenyl)imidazo[1,2-a]pyridin-3-yl)benzonitrile]	< 100	< 1000	–
COc1cc(C(=O)N2CCN(C)CC2)ccc1-c1ccc2ncc(-c3ccc(C#N)cc3)n2n1 [Example 78, 4-(6-(2-methoxy-4-(4-methylpiperazine-1-carbonyl)phenyl)imidazo[1,2-b]pyridazin-3-yl)benzonitrile]	< 100	< 100	–
N#Cc1ccc(-c2cnc3ccc(-c4ccc(C(=O)N5CCCOCC5)cc4)cn23)cc1 [Example 97]	< 100	< 100	–
